Results as given in patent US10473645B2, “Methods for identifying a receptor for a ligand and uses thereof” (UNIVERSITE DE GENEVE, priority 2014, dated 2019).

Legend:
OR67c [1] = target: T1, OR67c (Drosophila melanogaster, UniProt Q9VT90); test: Drosophila OR transcript level by RT-qPCR after odorant exposure; assay type: in vivo, Drosphila melanogaster; design: from tissue; host or cells: olfactory neurons of living W1118 flies (heads / antennae collected for RNA); conditions: 5% odorant in DMSO, 5 hours, fly heads
Description: (§1) Drosophila (W1118) were collected between 0 and 14 hours after hatching. Males and females were exposed separately.
(§2) For flies, after exposure, vials containing the animals were placed upside down in a −80° C. freezer for five minutes, then kept in a −20° C. freezer until dissection. Whole heads were removed by hand and placed in a screw-cap tube containing 1 ml of Trizol (Ambion) and a 0.5 cm diameter steel ball, and kept on ice. Samples were homogenized using four runs of 15 s at 6 m/s on a FastPrep®-24 instrument (MP Biomedicals).
(§3) Samples were cooled on ice between each run. RNA extraction followed the Trizol protocol according to the manufacturer instructions, and using 5 μg of RNase-free glycogen as carrier for RNA precipitation. The RNA pellet was resuspended in 20 μl of RNase-free water and a DNAse treatment (Life Technologies Ambion DNase I®) was performed.
(§4) 24 hours-old Drosphila melanogaster flies were kept in plastic tubes and exposed to either 5% ethyl lactate diluted in DMSO or to 5% geranyl acetate diluted in DMSO. The odorants were spotted on papers that were introduced into the plastic tubes. 10 flies were used per condition (8 independent extracts per condition). 5 hours after exposure heads were collected and RNA extracted.
(§5) The transcript levels for Or67c (a known receptor for ethyl lactate) and Or82a (a known receptor for geranyl acetate) were evaluated by RT-qPCR.

OR67c [2] = target: T1, OR67c; conditions: Hallem and Carlson, 2006; cited from earlier work
OR82a [3] = target: T2, OR82a (Drosophila melanogaster, UniProt P82986); test: Drosophila OR transcript level by RT-qPCR after odorant exposure; assay type: in vivo, Drosphila melanogaster; design: from tissue; host or cells: olfactory neurons of living W1118 flies (heads / antennae collected for RNA); conditions: 5% odorant in DMSO, 5 hours, fly heads
Description: as §1, §2, §3, §4, §5

OR82a [4] = target: T2, OR82a; conditions: Hallem and Carlson, 2006; cited from earlier work

T1 sequence (Q9VT90 whole entry): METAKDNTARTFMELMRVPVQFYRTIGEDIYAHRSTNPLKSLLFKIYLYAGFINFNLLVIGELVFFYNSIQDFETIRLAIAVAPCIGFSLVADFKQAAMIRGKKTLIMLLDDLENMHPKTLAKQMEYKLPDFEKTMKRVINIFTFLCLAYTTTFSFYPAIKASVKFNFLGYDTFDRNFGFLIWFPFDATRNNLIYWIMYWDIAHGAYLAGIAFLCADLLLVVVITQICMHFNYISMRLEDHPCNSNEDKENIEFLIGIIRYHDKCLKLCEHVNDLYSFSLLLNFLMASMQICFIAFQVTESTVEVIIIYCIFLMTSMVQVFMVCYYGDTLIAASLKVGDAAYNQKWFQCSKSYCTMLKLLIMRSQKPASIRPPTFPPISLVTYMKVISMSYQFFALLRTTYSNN
T1 sequence (Q9VNB5 whole entry partner): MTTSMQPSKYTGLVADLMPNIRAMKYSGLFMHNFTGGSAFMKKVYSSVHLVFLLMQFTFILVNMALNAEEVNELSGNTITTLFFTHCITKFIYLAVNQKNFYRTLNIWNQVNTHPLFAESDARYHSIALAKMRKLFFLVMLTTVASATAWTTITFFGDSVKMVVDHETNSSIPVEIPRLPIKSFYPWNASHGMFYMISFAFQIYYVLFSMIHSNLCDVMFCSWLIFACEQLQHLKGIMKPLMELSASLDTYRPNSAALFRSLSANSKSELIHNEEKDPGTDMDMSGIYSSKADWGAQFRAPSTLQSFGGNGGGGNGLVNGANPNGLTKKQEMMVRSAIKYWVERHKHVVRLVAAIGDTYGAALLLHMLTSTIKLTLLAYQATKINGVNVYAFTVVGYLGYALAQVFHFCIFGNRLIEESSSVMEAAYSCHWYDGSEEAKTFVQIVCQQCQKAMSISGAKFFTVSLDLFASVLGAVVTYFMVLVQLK
T2 sequence (P82986 whole entry): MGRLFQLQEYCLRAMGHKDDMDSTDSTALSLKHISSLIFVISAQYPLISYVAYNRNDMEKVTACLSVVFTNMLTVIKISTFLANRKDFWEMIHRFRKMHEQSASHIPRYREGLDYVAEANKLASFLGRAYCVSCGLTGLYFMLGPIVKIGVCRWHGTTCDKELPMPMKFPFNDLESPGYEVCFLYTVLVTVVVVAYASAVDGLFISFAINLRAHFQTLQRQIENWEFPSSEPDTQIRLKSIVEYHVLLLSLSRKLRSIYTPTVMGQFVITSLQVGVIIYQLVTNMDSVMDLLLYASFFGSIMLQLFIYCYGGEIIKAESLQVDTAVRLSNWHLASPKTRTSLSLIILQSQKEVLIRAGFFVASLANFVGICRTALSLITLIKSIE
T2 sequence (Q9VNB5 whole entry partner): as the sequence (Q9VNB5 whole entry partner) above

| SMILES | Or67c mRNA level relative to control ORs (OR67c [1]) [×] | OR67c response previously shown (OR67c [2]) | Or82a mRNA level relative to control ORs (OR82a [3]) [×] | OR82a response previously shown (OR82a [4]) |
| --- | --- | --- | --- | --- |
| CCOC(=O)C(C)O (stereo not shown) [ethyl lactate] | 0.7 | respond | – | – |
| CC(=O)OC/C=C(\C)CCC=C(C)C [geranyl acetate] | – | – | 0.6 | respond |
